From PubChem BioAssay AID1963434 (Molecular Pharmacology Branch, DTP, NCI, 2024)

Test system: 755483-174-R-J1-PDC complex spheroid growth, percent test/control
Assay: Anticancer human tumor 755483-174-R-J1-PDC patient-derived rhabdomyosarcoma cell line growth inhibition [Asc]
Settings: for IC50: curve of first compound; for viability, T/C: stronger effect = lower value
How it was run: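 Complex spheroids combining tumor cells with HUVEC endothelial cells and human MSCs, at 37 degrees C, 5% CO2; agents tested alone or combined, half-log dilutions from at or near clinical Cmax, or 10 microM if Cmax unknown.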

[1] = second compound 0.01 µM, first compound 0.0316 µM
[2] = second compound 0.01 µM, first compound 0.1 µM
[3] = second compound 0.01 µM, first compound 0.316 µM
[4] = second compound 0.01 µM, first compound 1 µM
[5] = second compound 0.01 µM, first compound 3.16 µM
[6] = second compound 0.01 µM, first compound 10 µM
[7] = second compound 0.0316 µM, first compound 0.0316 µM
[8] = second compound 0.0316 µM, first compound 0.1 µM
[9] = second compound 0.0316 µM, first compound 0.316 µM
[10] = second compound 0.0316 µM, first compound 1 µM
[11] = second compound 0.0316 µM, first compound 3.16 µM
[12] = second compound 0.0316 µM, first compound 10 µM
[13] = second compound 0.1 µM, first compound 0.0316 µM
[14] = second compound 0.1 µM, first compound 0.1 µM
[15] = second compound 0.1 µM, first compound 0.316 µM
[16] = second compound 0.1 µM, first compound 1 µM
[17] = second compound 0.1 µM, first compound 3.16 µM
[18] = second compound 0.1 µM, first compound 10 µM
[19] = second compound 0.316 µM, first compound 0.0316 µM
[20] = second compound 0.316 µM, first compound 0.1 µM
[21] = second compound 0.316 µM, first compound 0.316 µM
[22] = second compound 0.316 µM, first compound 1 µM
[23] = second compound 0.316 µM, first compound 3.16 µM
[24] = second compound 0.316 µM, first compound 10 µM
[25] = second compound 1 µM, first compound 0.0316 µM
[26] = second compound 1 µM, first compound 0.1 µM
[27] = second compound 1 µM, first compound 0.316 µM
[28] = second compound 1 µM, first compound 1 µM
[29] = second compound 1 µM, first compound 3.16 µM
[30] = second compound 1 µM, first compound 10 µM
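Also: spheroids exposed to compounds for seven days before readout.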

C#Cc1c(F)ccc2cc(O)cc(-c3ncc4c(N5CC6CCC(C5)N6)nc(OCC56CCCN5CC(F)C6)nc4c3F)c12 (stereo not given) + CNC(C)C(=O)NC1CN(S(=O)(=O)c2cccc(S(=O)(=O)N3CCC4CCC(C(=O)NC(c5ccccc5)c5ccccc5)N4C(=O)C(NC(=O)C(C)NC)C3)c2)CCC2CCC(C(=O)NC(c3ccccc3)c3ccccc3)N2C1=O
IC50 (second compound 0.01 µM): < 31.6 nM
IC50 (second compound 0.0316 µM): < 31.6 nM
IC50 (second compound 0.1 µM): < 31.6 nM
IC50 (second compound 0.316 µM): < 31.6 nM
IC50 (second compound 1 µM): < 31.6 nM
viability, T/C [1]: 46.4%
viability, T/C [2]: 44.1%
viability, T/C [3]: 55.5%
viability, T/C [4]: 54.6%
viability, T/C [5]: 36.6%
viability, T/C [6]: 2.18%
viability, T/C [7]: 33.2%
viability, T/C [8]: 36%
viability, T/C [9]: 38.7%
viability, T/C [10]: 48.3%
viability, T/C [11]: 36.4%
viability, T/C [12]: 2.06%
viability, T/C [13]: 35.9%
viability, T/C [14]: 42.6%
viability, T/C [15]: 54%
viability, T/C [16]: 28.7%
viability, T/C [17]: 24.8%
viability, T/C [18]: 1.01%
viability, T/C [19]: 32.1%
viability, T/C [20]: 33.9%
viability, T/C [21]: 30.9%
viability, T/C [22]: 34.9%
viability, T/C [23]: 13.9%
viability, T/C [24]: 0.34%
viability, T/C [25]: 17.1%
viability, T/C [26]: 31.2%
viability, T/C [27]: 31.7%
viability, T/C [28]: 22.8%
viability, T/C [29]: 10.5%
viability, T/C [30]: 0.34%

C=C(F)C(=O)N1CCN(c2nc(OCC3CCCN3C)nc3c2CCN(c2cccc4cccc(Cl)c24)C3)CC1CC#N (stereo not given) + CNC(C)C(=O)NC1CN(S(=O)(=O)c2cccc(S(=O)(=O)N3CCC4CCC(C(=O)NC(c5ccccc5)c5ccccc5)N4C(=O)C(NC(=O)C(C)NC)C3)c2)CCC2CCC(C(=O)NC(c3ccccc3)c3ccccc3)N2C1=O
IC50 (second compound 0.01 µM): 585 nM
IC50 (second compound 0.0316 µM): 336 nM
IC50 (second compound 0.1 µM): 428 nM
IC50 (second compound 0.316 µM): < 31.6 nM
IC50 (second compound 1 µM): < 31.6 nM
viability, T/C [1]: 68.4%
viability, T/C [2]: 62%
viability, T/C [3]: 58.9%
viability, T/C [4]: 40.6%
viability, T/C [5]: 3.47%
viability, T/C [6]: 0.12%
viability, T/C [7]: 48.5%
viability, T/C [8]: 56.7%
viability, T/C [9]: 50.1%
viability, T/C [10]: 32%
viability, T/C [11]: 2.46%
viability, T/C [12]: 0.12%
viability, T/C [13]: 40%
viability, T/C [14]: 63.9%
viability, T/C [15]: 66.2%
viability, T/C [16]: 31.1%
viability, T/C [17]: 17.1%
viability, T/C [18]: 0.12%
viability, T/C [19]: 26.6%
viability, T/C [20]: 30.6%
viability, T/C [21]: 38.7%
viability, T/C [22]: 23.3%
viability, T/C [23]: 2.01%
viability, T/C [24]: 0.12%
viability, T/C [25]: 29.7%
viability, T/C [26]: 34.6%
viability, T/C [27]: 21.6%
viability, T/C [28]: 13.1%
viability, T/C [29]: 0.83%
viability, T/C [30]: 0.19%

C=CC(=O)N1CCN(c2nc(=O)n(-c3c(C)ccnc3C(C)C)c3nc(-c4c(O)cccc4F)c(F)cc23)C(C)C1 (stereo not given) + CNC(C)C(=O)NC1CN(S(=O)(=O)c2cccc(S(=O)(=O)N3CCC4CCC(C(=O)NC(c5ccccc5)c5ccccc5)N4C(=O)C(NC(=O)C(C)NC)C3)c2)CCC2CCC(C(=O)NC(c3ccccc3)c3ccccc3)N2C1=O
IC50 (second compound 0.01 µM): > 10000 nM
IC50 (second compound 0.0316 µM): > 10000 nM
IC50 (second compound 0.1 µM): 31.6 nM
IC50 (second compound 0.316 µM): < 31.6 nM
IC50 (second compound 1 µM): < 31.6 nM
viability, T/C [1]: 80.2%
viability, T/C [2]: 89.3%
viability, T/C [3]: 75.2%
viability, T/C [4]: 61.4%
viability, T/C [5]: 80.5%
viability, T/C [6]: 63%
viability, T/C [7]: 51.8%
viability, T/C [8]: 77.5%
viability, T/C [9]: 61.4%
viability, T/C [10]: 56.6%
viability, T/C [11]: 75.1%
viability, T/C [12]: 37.7%
viability, T/C [13]: 53.4%
viability, T/C [14]: 54.7%
viability, T/C [15]: 44.6%
viability, T/C [16]: 59.2%
viability, T/C [17]: 69.8%
viability, T/C [18]: 51.1%
viability, T/C [19]: 38.4%
viability, T/C [20]: 36.2%
viability, T/C [21]: 44.4%
viability, T/C [22]: 61.1%
viability, T/C [23]: 46.2%
viability, T/C [24]: 43.9%
viability, T/C [25]: 32.4%
viability, T/C [26]: 28.9%
viability, T/C [27]: 33.6%
viability, T/C [28]: 35.5%
viability, T/C [29]: 39.9%
viability, T/C [30]: 36%

CCN1C(C(=O)NC23CCC(C(=O)O)(CC2)CC3)C(c2cccc(Cl)c2F)C2(C(=O)Nc3cc(Cl)ccc32)C12CCCCC2 (stereo not given) + CNC(C)C(=O)NC1CN(S(=O)(=O)c2cccc(S(=O)(=O)N3CCC4CCC(C(=O)NC(c5ccccc5)c5ccccc5)N4C(=O)C(NC(=O)C(C)NC)C3)c2)CCC2CCC(C(=O)NC(c3ccccc3)c3ccccc3)N2C1=O
IC50 (second compound 0.01 µM): 148 nM
IC50 (second compound 0.0316 µM): < 9.49 nM
IC50 (second compound 0.1 µM): < 9.49 nM
IC50 (second compound 0.316 µM): < 9.49 nM
IC50 (second compound 1 µM): < 9.49 nM
viability, T/C (second compound 0.01 µM, first compound 0.00949 µM): 56.2%
viability, T/C (second compound 0.01 µM, first compound 0.03 µM): 73.9%
viability, T/C (second compound 0.01 µM, first compound 0.0949 µM): 55%
viability, T/C (second compound 0.01 µM, first compound 0.3 µM): 39.3%
viability, T/C (second compound 0.01 µM, first compound 0.949 µM): 48.2%
viability, T/C (second compound 0.01 µM, first compound 3 µM): 38.6%
viability, T/C (second compound 0.0316 µM, first compound 0.00949 µM): 38.6%
viability, T/C (second compound 0.0316 µM, first compound 0.03 µM): 45.8%
viability, T/C (second compound 0.0316 µM, first compound 0.0949 µM): 50%
viability, T/C (second compound 0.0316 µM, first compound 0.3 µM): 49.2%
viability, T/C (second compound 0.0316 µM, first compound 0.949 µM): 44.2%
viability, T/C (second compound 0.0316 µM, first compound 3 µM): 28.9%
viability, T/C (second compound 0.1 µM, first compound 0.00949 µM): 27.9%
viability, T/C (second compound 0.1 µM, first compound 0.03 µM): 23.6%
viability, T/C (second compound 0.1 µM, first compound 0.0949 µM): 39.4%
viability, T/C (second compound 0.1 µM, first compound 0.3 µM): 28.9%
viability, T/C (second compound 0.1 µM, first compound 0.949 µM): 32.6%
viability, T/C (second compound 0.1 µM, first compound 3 µM): 24.4%
viability, T/C (second compound 0.316 µM, first compound 0.00949 µM): 19.9%
viability, T/C (second compound 0.316 µM, first compound 0.03 µM): 26.2%
viability, T/C (second compound 0.316 µM, first compound 0.0949 µM): 40%
viability, T/C (second compound 0.316 µM, first compound 0.3 µM): 37.9%
viability, T/C (second compound 0.316 µM, first compound 0.949 µM): 23.5%
viability, T/C (second compound 0.316 µM, first compound 3 µM): 27%
viability, T/C (second compound 1 µM, first compound 0.00949 µM): 23.5%
viability, T/C (second compound 1 µM, first compound 0.03 µM): 23.1%
viability, T/C (second compound 1 µM, first compound 0.0949 µM): 18.1%
viability, T/C (second compound 1 µM, first compound 0.3 µM): 23.1%
viability, T/C (second compound 1 µM, first compound 0.949 µM): 21.5%
viability, T/C (second compound 1 µM, first compound 3 µM): 34.4%

COc1c(OCCCN2CCOCC2)ccc2c3n(c(=NC(=O)c4cnc(N)nc4)nc12)CCN3 + CNC(C)C(=O)NC1CN(S(=O)(=O)c2cccc(S(=O)(=O)N3CCC4CCC(C(=O)NC(c5ccccc5)c5ccccc5)N4C(=O)C(NC(=O)C(C)NC)C3)c2)CCC2CCC(C(=O)NC(c3ccccc3)c3ccccc3)N2C1=O
IC50 (second compound 0.01 µM): 21.4 nM
IC50 (second compound 0.0316 µM): < 3.16 nM
IC50 (second compound 0.1 µM): < 3.16 nM
IC50 (second compound 0.316 µM): < 3.16 nM
IC50 (second compound 1 µM): < 3.16 nM
viability, T/C (second compound 0.01 µM, first compound 0.00316 µM): 59.1%
viability, T/C (second compound 0.01 µM, first compound 0.01 µM): 59.4%
viability, T/C [1]: 45.7%
viability, T/C [2]: 20.4%
viability, T/C [3]: 8.95%
viability, T/C [4]: 3.6%
viability, T/C (second compound 0.0316 µM, first compound 0.00316 µM): 41.9%
viability, T/C (second compound 0.0316 µM, first compound 0.01 µM): 56.3%
viability, T/C [7]: 40.2%
viability, T/C [8]: 19%
viability, T/C [9]: 5.22%
viability, T/C [10]: 3.87%
viability, T/C (second compound 0.1 µM, first compound 0.00316 µM): 36%
viability, T/C (second compound 0.1 µM, first compound 0.01 µM): 43.2%
viability, T/C [13]: 35.6%
viability, T/C [14]: 11.6%
viability, T/C [15]: 6.95%
viability, T/C [16]: 3.25%
viability, T/C (second compound 0.316 µM, first compound 0.00316 µM): 32%
viability, T/C (second compound 0.316 µM, first compound 0.01 µM): 29.7%
viability, T/C [19]: 51%
viability, T/C [20]: 13.7%
viability, T/C [21]: 6.6%
viability, T/C [22]: 1.75%
viability, T/C (second compound 1 µM, first compound 0.00316 µM): 35.4%
viability, T/C (second compound 1 µM, first compound 0.01 µM): 16.7%
viability, T/C [25]: 24.5%
viability, T/C [26]: 27.5%
viability, T/C [27]: 22.7%
viability, T/C [28]: 1.36%
